Among the data in patent EP4755888A1 (ILAb Co., Ltd., priority 2023, dated 2025) are IC50 values, retold here.

This assay addresses PD-1/PD-L1 (Homo sapiens, UniProt Q9NZQ7). The assay is described as follows: TR-FRET PD-1/PD-L1 binding inhibition at the molecular level (free proteins). The settings on record: Tag1-PD-L1 and Tag2-PD-1 proteins, twelve concentrations from 200 nM, 2 hours at room temperature, read-out: FRET assay (IC50). A digest of the protocol:
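HTRF read-out at 665/620 nm after 2 h at room temperature. Detection used anti-Tag1 Eu cryptate plus anti-Tag2 XL665 antibodies. Tagged PD-L1 and PD-1 proteins were pre-mixed with compound across twelve […] 1:2 dilutions starting at 200 nM.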
(In general: In TR-FRET formats the signal depends on donor and acceptor labels being close together.)

PD-1/PD-L1, sequence (Q9NZQ7 19-238 limits assumed): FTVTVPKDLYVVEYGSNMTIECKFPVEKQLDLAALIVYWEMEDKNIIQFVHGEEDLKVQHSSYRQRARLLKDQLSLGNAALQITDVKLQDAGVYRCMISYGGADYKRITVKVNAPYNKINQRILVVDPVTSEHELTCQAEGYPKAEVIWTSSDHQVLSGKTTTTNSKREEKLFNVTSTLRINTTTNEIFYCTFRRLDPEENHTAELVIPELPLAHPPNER

Broadly, the IC50 is the concentration that inhibits the measured activity by half. In the case of `O=C(Nc1cccc(-c2cccc(Nc3nccc4cc(CN5CC[C@@H](O)C5)cnc34)c2Cl)c1Cl)c1cc2n(n1)CCCC2NC(CO)CO` (stereo partly drawn) [Compound 230, N-(2,2'-dichloro-3'-((3-(((R)-3-hydroxypyrrolidin-1-yl)methyl)-1,7-naphthyridin-8-yl)amino)-[1,1'-biphenyl]-3-yl)-4-((1,3-dihydroxypropan-2-yl)amino)-4,5,6,7-tetrahydropyrazolo[1,5-a]pyridine-2-carboxamide], the concentration for half-maximal inhibition (IC50) was in the range of 10 to 100 nM.

For `O=C(Nc1cccc(-c2cccc(Nc3nccc4cc(CN5CC[C@@H](O)C5)cnc34)c2Cl)c1Cl)c1cc2n(n1)CCCC2NC1CCOCC1` (stereo partly drawn) [Compound 231, N-(2,2'-dichloro-3'-((3-(((R)-3-hydroxypyrrolidin-1-yl)methyl)-1,7-naphthyridin-8-yl)amino)-[1,1'-biphenyl]-3-yl)-4-((tetrahydro-2H-pyran-4-yl)amino)-4,5,6,7-tetrahydropyrazolo[1,5-a]pyridine-2-carboxamide], the IC50 was in the range of 10 to 100 nM.

`O=C(Nc1cccc(-c2cccc(Nc3nccc4cc(CN5CC[C@@H](O)C5)cnc34)c2Cl)c1Cl)c1cc2n(n1)CCCC2N1CC(O)C1` (stereo partly drawn) [Compound 232, N-(2,2'-dichloro-3'-((3-(((R)-3-hydroxypyrrolidin-1-yl)methyl)-1,7-naphthyridin-8-yl)amino)-[1,1'-biphenyl]-3-yl)-4-(3-hydroxyazetidin-1-yl)-4,5,6,7-tetrahydropyrazolo[1,5-a]pyridine-2-carboxamide]: the half-inhibitory concentration (IC50) is 10 to 100 nM.

`O=C(Nc1cccc(-c2cccc(Nc3nccc4cc(CN5CC[C@@H](O)C5)cnc34)c2Cl)c1Cl)c1cc2n(n1)CCCC2NC1CCC(O)CC1` (stereo partly drawn) [Compound 233, N-(2,2'-dichloro-3'-((3-(((R)-3-hydroxypyrrolidin-1-yl)methyl)-1,7-naphthyridin-8-yl)amino)-[1,1'-biphenyl]-3-yl)-4-((4-hydroxycyclohexyl)amino)-4,5,6,7-tetrahydropyrazolo[1,5-a]pyridine-2-carboxamideide]: the 50% inhibitory concentration (IC50) lay in the range of 10 to 100 nM.

Take `COCCNC1CCCn2nc(C(=O)Nc3cccc(-c4cccc(Nc5nccc6cc(CN7CC[C@@H](O)C7)cnc56)c4Cl)c3Cl)cc21` (stereo partly drawn) [Compound 234, N-(2,2'-dichloro-3'-((3-(((R)-3-hydroxypyrrolidin-1-yl)methyl)-1,7-naphthyridin-8-yl)amino)-[1,1'-biphenyl]-3-yl)-4-((2-methoxyethyl)amino)-4,5,6,7-tetrahydropyrazolo[1,5-a]pyridine-2-carboxamide]: the concentration for half-maximal inhibition (IC50) lay within 10 to 100 nM.

Take `CS(=O)(=O)NCCNC1CCCn2nc(C(=O)Nc3cccc(-c4cccc(Nc5nccc6cc(CN7CC[C@@H](O)C7)cnc56)c4Cl)c3Cl)cc21` (stereo partly drawn) [Compound 235, N-(2,2'-dichloro-3'-((3-(((R)-3-hydroxypyrrolidin-1-yl)methyl)-1,7-naphthyridin-8-yl)amino)-[1,1'-biphenyl]-3-yl)-4-((2-(methylsulfonamido)ethyl)amino)-4,5,6,7-tetrahydropyrazolo[1,5-a]pyridine-2-carboxamide]: the IC50 was 10 to 100 nM.

In the case of `CC(=O)N1CC2(C1)CN(C1CCCn3nc(C(=O)Nc4cccc(-c5cccc(Nc6nccc7cc(CN8CC[C@@H](O)C8)cnc67)c5Cl)c4Cl)cc31)C2` (stereo partly drawn) [Compound 236, 4-(6-acetyl-2,6-diazaspiro[3.3]heptan-2-yl)-N-(2,2'-dichloro-3'-((3-(((R)-3-hydroxypyrrolidin-1-yl)methyl)-1,7-naphthyridin-8-yl)amino)-[1,1'-biphenyl]-3-yl)-4,5,6,7-tetrahydropyrazolo[1,5-a]pyridine-2-carboxamide], the half-maximal inhibitory concentration (IC50) lay within 10 to 100 nM.

As to `CC(C)(O)C1CN(C2CCCn3nc(C(=O)Nc4cccc(-c5cccc(Nc6nccc7cc(CN8CC[C@@H](O)C8)cnc67)c5Cl)c4Cl)cc32)C1` (stereo partly drawn) [Compound 237, N-(2,2'-dichloro-3'-((3-(((R)-3-hydroxypyrrolidin-1-yl)methyl)-1,7-naphthyridin-8-yl)amino)-[1,1'-biphenyl]-3-yl)-4-(3-(2-hydroxypropan-2-yl)azetidin-1-yl)-4,5,6,7-tetrahydropyrazolo[1,5-a]pyridine-2-carboxamide], the IC50 is 10 to 100 nM.

With `O=C1CCC2(CN(C3CCCn4nc(C(=O)Nc5cccc(-c6cccc(Nc7nccc8cc(CN9CC[C@@H](O)C9)cnc78)c6Cl)c5Cl)cc43)C2)N1` (stereo partly drawn) [Compound 238, N-(2,2'-dichloro-3'-((3-(((R)-3-hydroxypyrrolidin-1-yl)methyl)-1,7-naphthyridin-8-yl)amino)-[1,1'-biphenyl]-3-yl)-4-(6-oxo-2,5-diazaspiro[3.4]octan-2-yl)-4,5,6,7-tetrahydropyrazolo[1,5-a]pyridine-2-carboxamide], the half-inhibitory concentration (IC50) was 10 to 100 nM.

As to `O=C(O)CCCNC1CCCn2nc(C(=O)Nc3cccc(-c4cccc(Nc5nccc6cc(CN7CC[C@@H](O)C7)cnc56)c4Cl)c3Cl)cc21` (stereo partly drawn) [Compound 239, 4-((2-((2,2'-dichloro-3'-((3-(((R)-3-hydroxypyrrolidin-1-yl)methyl)-1,7-naphthyridin-8-yl)amino)-[1,1'-biphenyl]-3-yl)carbamoyl)-4,5,6,7-tetrahydropyrazolo[1,5-a]pyridin-4-yl)amino)butanoic acid], the IC50 lay in the range of 10 to 100 nM.

In the case of `O=C(Nc1cccc(-c2cccc(Nc3nccc4cc(CN5CC[C@@H](O)C5)cnc34)c2Cl)c1Cl)c1cc2n(n1)CCCC2N1CCCC1=O` (stereo partly drawn) [Compound 240, N-(2,2'-dichloro-3'-((3-(((R)-3-hydroxypyrrolidin-1-yl)methyl)-1,7-naphthyridin-8-yl)amino)-[1,1'-biphenyl]-3-yl)-4-(2-oxopyrrolidin-1-yl)-4,5,6,7-tetrahydropyrazolo[1,5-a]pyridine-2-carboxamide], the half-inhibitory concentration (IC50) is 10 to 100 nM.

Take `CC(=O)NCCN[C@H]1CCCn2nc(C(=O)Nc3cccc(-c4cccc(NC(=O)c5ccc(CNCCO)cn5)c4Cl)c3Cl)cc21` [Compound 241, (S)-4-((2-acetamidoethyl)amino)-N-(2,2'-dichloro-3'-(5-(((2-hydroxyethyl)amino)methyl)picolinamido)-[1,1'-biphenyl]-3-yl)-4,5,6,7-tetrahydropyrazolo[1,5-a]pyridine-2-carboxamide]: the concentration for half-maximal inhibition (IC50) is less than 10 nM.

With `CC(=O)NCCN[C@@H]1CCCn2nc(C(=O)Nc3cccc(-c4cccc(NC(=O)c5ccc(CNCCO)cn5)c4Cl)c3Cl)cc21` [Compound 242, (R)-4-((2-acetamidoethyl)amino)-N-(2,2'-dichloro-3'-(5-(((2-hydroxyethyl)amino)methyl)picolinamido)-[1,1'-biphenyl]-3-yl)-4,5,6,7-tetrahydropyrazolo[1,5-a]pyridine-2-carboxamide], the 50% inhibitory concentration (IC50) is less than 10 nM.

As for `O=C(Nc1cccc(-c2cccc(NC(=O)c3cc4n(n3)CCC[C@@H]4N3CC[C@@H](O)C3)c2Cl)c1Cl)c1ccc(CNCCO)cn1` [Compound 243, (S)-N-(2,2'-dichloro-3'-(5-(((2-hydroxyethyl)amino)methyl)picolinamido)-[1,1'-biphenyl]-3-yl)-4-((R)-3-hydroxypyrrolidin-1-yl)-4,5,6,7-tetrahydropyrazolo[1,5-a]pyridine-2-carboxamide], the IC50 was less than 10 nM.

With `O=C(Nc1cccc(-c2cccc(NC(=O)c3cc4n(n3)CCC[C@H]4N3CC[C@@H](O)C3)c2Cl)c1Cl)c1ccc(CNCCO)cn1` [Compound 244, (R)-N-(2,2'-dichloro-3'-(5-(((2-hydroxyethyl)amino)methyl)picolinamido)-[1,1'-biphenyl]-3-yl)-4-((R)-3-hydroxypyrrolidin-1-yl)-4,5,6,7-tetrahydropyrazolo[1,5-a]pyridine-2-carboxamide], the concentration for half-maximal inhibition (IC50) was less than 10 nM.

Take `COc1cc(-c2cccc(-c3cccc(NC(=O)c4cc5n(n4)CCC[C@@H]5NCC(=O)O)c3Cl)c2Cl)cc(F)c1CNCCO` [Compound 245, (S)-2-((2-((2,2'-dichloro-3"-fluoro-4"-(((2-hydroxyethyl)amino)methyl)-5"-methoxy-[1,1':3',1"-terphenyl]-3-yl)carbamoyl)-4,5,6,7-tetrahydropyrazolo[1,5-a]pyridin-4-yl)amino)acetic acid]: the IC50 was less than 10 nM.

`COc1cc(-c2cccc(-c3cccc(NC(=O)c4cc5n(n4)CCC[C@H]5NCC(=O)O)c3Cl)c2Cl)cc(F)c1CNCCO` [Compound 246, (R)-2-((2-((2,2'-dichloro-3"-fluoro-4"-(((2-hydroxyethyl)amino)methyl)-5"-methoxy-[1,1':3',1"-terphenyl]-3-yl)carbamoyl)-4,5,6,7-tetrahydropyrazolo[1,5-a]pyridin-4-yl)amino)acetic acid]: the 50% inhibitory concentration (IC50) is less than 10 nM.

As for `COc1cc(-c2cccc(-c3cccc(NC(=O)c4cc5n(n4)CCC[C@@H]5NCC(=O)O)c3Cl)c2Cl)cc(F)c1CN1CC[C@@H](O)C1` [Compound 247, 2-(((S)-2-((2,2'-dichloro-3"-fluoro-4"-(((R)-3-hydroxypyrrolidin-1-yl)methyl)-5"-methoxy-[1,1':3',1"-terphenyl]-3-yl)carbamoyl)-4,5,6,7-tetrahydropyrazolo[1,5-a]pyridin-4-yl)amino)acetic acid], the concentration for half-maximal inhibition (IC50) was less than 10 nM.

As for `COc1cc(-c2cccc(-c3cccc(NC(=O)c4cc5n(n4)CCC[C@H]5NCC(=O)O)c3Cl)c2Cl)cc(F)c1CN1CC[C@@H](O)C1` [Compound 248, 2-(((R)-2-((2,2'-dichloro-3"-fluoro-4"-(((R)-3-hydroxypyrrolidin-1-yl)methyl)-5"-methoxy-[1,1':3',1"-terphenyl]-3-yl)carbamoyl)-4,5,6,7-tetrahydropyrazolo[1,5-a]pyridin-4-yl)amino)acetic acid], the concentration for half-maximal inhibition (IC50) was less than 10 nM.

As for `COc1cc(-c2cccc(-c3cccc(NC(=O)c4cc5n(n4)CCC[C@@H]5NCC(=O)O)c3Cl)c2Cl)cc(F)c1CNC[C@@H]1CCC(=O)N1` [Compound 249, 2-(((S)-2-((2,2'-dichloro-3"-fluoro-5"-methoxy-4"-(((((S)-5-oxopyrrolidin-2-yl)methyl)amino)methyl)-[1,1':3',1"-terphenyl]-3-yl)carbamoyl)-4,5,6,7-tetrahydropyrazolo[1,5-a]pyridin-4-yl)amino)acetic acid], the concentration for half-maximal inhibition (IC50) fell in the range of 10 to 100 nM.
